Experiment: Photostability under continuous 808 nm laser irradiation
Assay type: physicochemical
Settings: aqueous solution, 808 nm laser at 108 mW/cm^2, 20 minutes
Experimental: Indocyanine green (ICG), an FDA-approved near-infrared dye widely used clinically, was used as a control to evaluate the photostability of compound Ia (SQ 905). ICG was dissolved in water, and compound Ia (SQ 905) was dissolved in methanol. Over a period of 25 minutes, the methanol solution of compound Ia and the aqueous solution of ICG were continuously irradiated with an 808 nm laser at 108 mW/cm^2. During this period, the fluorescence intensity was recorded using a near-infrared II camera (MARS, Artemis Intelligent Imaging, Shanghai, China). Images were recorded every minute for the first 15 minutes, and every 5 minutes thereafter to monitor the fluorescence intensity. The fluorescence intensity of the region of interest (ROI) in the captured images was quantified using ImageJ software and compared with the initial fluorescence intensity to obtain the ratio of fluorescence intensity at each time point relative to the initial intensity. The photostability curve of compound Ia was plotted using GraphPad Prism 8.0.2 software.
Accordingly, the photostability of compound Ia was evaluated in this example. The methanol solution of compound Ia and the aqueous solution of ICG were used for photostability testing.

decrease of fluorescence intensity after continuous irradiation: 83%
SMILES: CC1(C)C(/C=C/C=C/C=C/C=C2\N(CCCCS(=O)(=O)O)c3ccc4ccccc4c3C2(C)C)=[N+](CCCCS(=O)(=O)[O-])c2ccc3ccccc3c21 [ICG, Indocyanine green]

From patent EP4818156A1, “SQUARIC ACID COMPOUND, PHARMACEUTICALLY ACCEPTABLE SALT OR DEUTERATED COMPOUND THEREOF, PREPARATION METHOD THEREFOR AND USE THEREOF” (Shanghai Institute of Materia Medica, Chinese Academy of …, priority 2023, dated 2025)
